In US20220411448A1, “CHROMENE-4-ONE DERIVATIVES AS BRAIN-DERIVED NEUROTROPHIC FACTOR (BDNF) MIMETICS” (FLORATEK PHARMA AG, priority 2019, published 2022):

How the values were obtained:
[1] = tested on: cortical neurons treated with glutamate; experiment: Neuron protection from glutamate injury: mitochondrial membrane potential (rhodamine 123); type: cell-based, rat
Description: (§1) Cortices were harvested from E19 rat embryos and dissociated enzymatically and mechanically. Dissociated cells were plated in poly-D-lysine coated imaging plates (384 wells), in 70 μL of neuronal growth medium (Neurocult Neuronal Basal medium+SM1 neuronal supplements+L-glutamine+HEPES). Cells were incubated at 37° C., 5% CO2 and half of the medium was changed twice per week.
For mitochondrial membrane potential measurement (MMP) neurons were cultured 10 to 14 days in vitro, the growth medium was discarded and wells were washed with 50 μL of extracellular saline. Saline was removed and replaced by 25 μL of staining solution (rhodamine 123 in a saline solution containing 1.5 mM Calcium, pyruvate and verapamil). The cells were incubated 30 min at 37° C./5% CO2. 5 μL of a staining solution with or without the test substances at 6× concentrated was added in the wells. […]
Glutamate was prepared 6× concentrated (6 μL on top of the 30 μL) in saline or saline+test compounds 1× concentrated depending on the conditions. […] Basal MMP levels were measured for 1 minute before automated addition of the compounds or controls while recording. MMP signals were further recorded for 30 minutes to 1 hour. […]
Rhodamine 123 is a cationic fluorescent dye that is used to specifically label respiring mitochondria. […] Loss of potential will result in loss of the dye and, therefore, the fluorescence intensity.

TrkB receptor = experiment: Activation of TrkB receptor: phosphorylation in cortical neurons (WES capillary immunoassay); type: cell-based, mouse
Description: On the day of preparation (DIV1) cortical neurons were seeded on poly-D-lysine pre-coated 6-well plates at a density of 1.25*10^6 cells per well and cultured at 37° C.; 95% humidity and 5% CO2 until […] with a half medium exchange on DIV4-6. On DIV10 cells are treated with test item TI (SND118) and control Rh (7,8DHF) at different concentrations for 15 min. The experiment was carried out with n=6 technical replicates per condition, vehicle treated cells served as control. Cells were lysed in 150 μL cold RIPA buffer [50 mM Tris pH 7.4, 1% Nonidet P40, 0.25% Na-deoxy-cholate, 150 mM NaCl, 1 mM EDTA supplemented with freshly added 1 μM NaF, 0.2 mM Na-ortho-vanadate, 80 μM Glycerophosphate, protease (Calbiochem) and phosphatase (Sigma) inhibitor cocktail.
Phosphorylation of the TrkB receptor was detected using the following rabbit anti-Tyr specific antibodies: anti-TrkB Y515, Y706/707 and Y816 and compared with total TrkB detected with anti-TrkB antibody (Abcam). Antibody dilutions and protein amounts were optimized for signal specificity.
Automated separation and immunostaining of total and phospho TrkB was carried out using a capillary-based immunoassay, WES™ (Proteinsimple®). Samples were applied to a 25 capillary cartridge with a 2 to 440 kDa matrix, at an optimized total protein concentration. Sample loading, separation, immunoprobing, washing, detection and quantitative data analysis were performed automatically by WES™ Western system (Compass software V 4.0.0). The areas under the curve were used for the analysis and the phosphorylated versus vehicle or total TrkB signal ratio was calculated and used for statistics.

[2] = tested on: organotypic hippocampal brain slices with IAA lesion; experiment: Organotypic brain slices, iodoacetic acid injury: cell survival (MTT); type: cell-based, mouse; details: SND118 10 and 30 μM; SND124 30 μM; 7,8 DHF 10 μm; IAA 250 μM for 110 min
Description: (§2) Preparation of the organotypic brain slices were performed by decapitation of the P9/P10 mouse pups, removing skin and skull and immersing brains in slicing medium (Opti-MEM 1, […]). Brains were hemisected and hippocampi were isolated. Hippocampi were placed on the cutting disc of a McIlwain Tissue Chopper. […] hippocampal slices were chopped transversely. A number of 4 slices per hippocampus were placed on porous (0.4 μM) transparent membrane inserts (Millipore) and incubated for 1 h on ice in HBSS containing 10 mM glucose. Afterwards inserts were transferred to fresh 24-well plates containing 250-300 μl culture medium (50% MEM/EBSS, 25% horse serum, 25% CMF-HBSS, 25 mM glucose, 0.5% pen/strep). Slices were maintained at 37° C. and 5% CO2.
(§3) On DV15, brain slices were pretreated with SND derivatives test compounds and the reference 7,8DHF at various concentrations (between […]) for 30 min, followed by the addition of iodoacetic acid (IAA) at 250 μM for 110 min, when cell survival, MMP and toxicity were measured.
Cell survival was measured by the MTT assay. For the determination of mitochondrial membrane potential, treated organotypic brain slices were loaded with the mitochondrial fluorescent dye, tetramethylrhodamine methyl ester (TMRM) at a final concentration of 100 nM in PBS and incubated for 45 min at 37° C. The TMRM containing solution was aspirated and slices were transferred into new well plates containing the appropriate amount of PBS. Fluorescence was measured with a plate-reader (Cytation 5) using wavelengths of excitation and emission of 548 and 574 nm, respectively (area scan). Values were calculated as percent of control values (vehicle control). Toxicity of the treatment was measured by LDH. No toxicity was observed.

[3] = tested on: cortical neurons treated with glutamate; experiment: Neuron protection from glutamate injury: intracellular calcium measurement; type: cell-based, rat
Description: as §1
For Calcium measurement, the cells were cultured for 10 to 14 days in vitro, the growth medium was discarded and replaced by 25 μL of a calcium probe in a saline solution (containing 1.5 mM Calcium) for 30 min at 37° C./5% CO2. 5 μL of calcium probe in a saline solution with or without the test substances at 6× concentrated was added in the wells for the pre-treatment step. The wells were further incubated 30 min at 37° C./5% CO2
For calcium measurement, at the end of the pre-treatment, glutamate was prepared at 6× concentrated (6 μL on top of the 30 μL). The final vehicle concentration in all conditions was adjusted. Basal calcium levels was measured for 1 minute before automated addition of the compounds or controls while recording. Intracellular calcium signals was further recorded for 5 to 10 minutes at a sampling rate of around 1 point per second. Each experimental condition was tested in quadruplicate wells.

[4] = tested on: primary cultures of cerebral cortical astrocytes; details: glutamate 200 μM, positive control; cited from earlier work
[5] = tested on: organotypic hippocampal brain slices with IAA lesion; experiment: Organotypic brain slices, iodoacetic acid injury: mitochondrial membrane potential (TMRM); type: cell-based, mouse; details: SND118 10 and 30 μM; SND124 30 μM; IAA 250 μM for 110 min
Description: as §2, §3
Cell survival was measured by the MTT assay. […] Fluorescence was measured with a plate-reader (Cytation 5) using wavelengths of excitation and emission of 548 and 574 nm, respectively (area scan). Values were calculated as percent of control values (vehicle control). Toxicity of the treatment was measured by LDH. […]

MAO-A = target: T1, MAO-A (Homo sapiens, UniProt P21397); experiment: In vitro inhibition of monoamine oxidase type A (BioVision MAO-A inhibitor screening kit); type: biochemical; details: read-out: IC50 in vitro inhibition of MOA-A enzyme
T1 construct: purchased BioVision K796
T1 sequence (P21397 1-527): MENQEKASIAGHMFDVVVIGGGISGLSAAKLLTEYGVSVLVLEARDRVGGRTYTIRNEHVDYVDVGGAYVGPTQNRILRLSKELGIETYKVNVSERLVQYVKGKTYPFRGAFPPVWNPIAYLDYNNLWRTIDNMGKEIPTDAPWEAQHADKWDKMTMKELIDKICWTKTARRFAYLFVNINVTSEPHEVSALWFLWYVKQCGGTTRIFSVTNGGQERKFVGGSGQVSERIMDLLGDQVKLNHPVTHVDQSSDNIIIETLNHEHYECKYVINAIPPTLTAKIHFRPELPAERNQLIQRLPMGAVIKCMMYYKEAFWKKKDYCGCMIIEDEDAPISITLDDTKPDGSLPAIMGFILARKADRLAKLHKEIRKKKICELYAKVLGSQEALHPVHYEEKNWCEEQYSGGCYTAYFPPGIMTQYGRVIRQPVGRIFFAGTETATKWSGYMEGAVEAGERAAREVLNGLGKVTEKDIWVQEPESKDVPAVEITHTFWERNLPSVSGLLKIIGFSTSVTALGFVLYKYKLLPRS
Description: BioVision's MAO-A inhibitor screening kit (BioVision Cat no. K796) was used to assess inhibitory effects of the test items (TIs) on MAO-A in a fluorescent assay.
The assay was carried out according to the provided protocol: TIs were diluted to 10× with MAO-A Assay Buffer before use. 10 μl of test inhibitor (S), working solution of Inhibitor Control (IC; Clorgyline, 1 μM final in the well) and MAO-A Assay Buffer (Enzyme Control; EC) were added into assigned wells. 50 μl of diluted MAO-A Enzyme Solution was added to each well and incubated for 10 min at RT. To check the possible inhibitory effect of TIs on Developer, one well with TI was prepared parallel and incubated with 50 μl of a H2O2 mix instead of the MAO-A Enzyme Solution.
The reaction was started by adding 40 μl of the prepared substrate mix. Measurement of the fluorescence (Ex/Em=535/587 nm) was done kinetically at 25° C. for 10-30 min. Two time points (t1 and t2) in the linear range of the plot were chosen for further calculations (2 min and 6 min). The slope for all Sample Compounds [S], Enzyme Control [EC], Vehicle Control [VC] and Background Control [BC] were calculated by dividing the net ARFU (RFU2-RFU1) values by the time Δt (t2−t1). The slope obtained for the Background Control reaction was subtracted from the [S], [EC] and [VC] values. […]

## C[C@]12N[C@H](Cc3ccccc31)c1ccccc12 [MK801, [(+)-5-methyl-10,11-dihydroxy-5H-dibenzo(a,d)cyclohepten-5,10-imine], reference compound]
[1]; MK801 10 μM, control compound
  mitochondria potential increased by glutamate (rhodamine 123): restored

## O=c1cc(-c2ccccc2)oc2c(O)c(O)ccc12 [7,8DHF, 7,8-dihydroxyflavone, reference compound]
TrkB receptor; 1 and 2 μM
  phosphorylation of the TrkB receptor at sites Tyr 515 and Tyr 816: induced a lower phosphorylation, which did not reach statistical significance
TrkB receptor; SND118 2 μM
  phosphorylation of TrkB at Tyr residue 706/707 versus the vehicle: neither the derivative nor the 7,8DHF reached statistical significance
[2]
  cell survival upon IAA lesion (MTT): no effect

## COc1c(O)ccc2c(=O)cc(-c3ccc(CCCC[P+](c4ccccc4)(c4ccccc4)c4ccccc4)cc3)oc12.[Br-] [SND135, (4-(4-(7-hydroxy-8-methoxy-4-oxo-4H-chromen-2-yl)phenyl)butyl)triphenylphosphonium bromide]
[3]; SND135 30 μM, glutamate 30 μM
  calcium release induced by glutamate: decreased
[3]; SND135 10 and 30 μM, glutamate 10 and 30 μM
  calcium release induced by glutamate (maximum peak of calcium kinetic): decreases calcium release
[1]; SND135 between 3 and 30 μM, glutamate between 10 and 100 μM
  mitochondria potential induced by glutamate (rhodamine 123): decreases mitochondria potential

## N[C@@H](CCC(=O)O)C(=O)O [glutamate]
[4]
  increase of glucose entry: 20 to 30%

## CCNC(=O)Oc1ccc2c(=O)cc(-c3ccc(CCCC[P+](c4ccccc4)(c4ccccc4)c4ccccc4)cc3)oc2c1OC(=O)NCC.[Br-] [SND124, 4-[4-[7,8-Bis(ethylcarbamoyloxy)-4-oxo-chromen-2-yl]phenyl]-butyltriphenylphosphonium bromide]
[5]
  mitochondria function (MMP, TMRM) after IAA lesion: rescued mitochondria function
[2]
  cell survival upon IAA lesion (MTT): statistically increase cell survival
MAO-A
  IC50: 20 µM
